Patent US5391540A, “Substituted pyridine compounds” (Rohm and Haas Company, priority 1993, dated 1995)

Tests used:
Experiment in all cases: Pre-emergent herbicidal activity (Table A)
Assay type in all cases: in vivo
Morningglory = conditions: Ipomoea, pre-emergence, Mogl, 11.2 kg/ha, 10-14 days, read-out: herbicidal rating (% inhibition)
Method: (§1) The herbicidal ratings used in Tables A and B were assigned according to a scale based on the percent inhibition of each plant species. The herbicide rating symbols in Tables A and B are defined as follows: […]
(§2) One set of pre-emergent tests was conducted as follows:
(§3) Topsoil was placed in a pan and compacted to a depth of 0.95 to 1.27 cm. from the top of the pan. A predetermined number of seeds of each of several monocotyledonous and dicotyledonous annual plant species and/or vegetative propagules of various perennial plant species were placed on top of the soil. The soil required to level fill a pan after seeding or adding vegetative propagules was weighed into another pan. A known amount of the test compound dissolved or suspended in an organic solvent or water and applied in acetone or water as a carrier was thoroughly mixed with this cover soil, and the herbicide/soil mixture was used as a cover layer for the previously prepared pan.
(§4) The plant species usually regarded as weeds which were utilized in one set of pre-emergent activity tests, the data for which are shown in Table A, are identified by letter headings printed diagonally above the columns according to the following legend: […]

Common Lambsquarters = conditions: Chenopodium album, pre-emergence, Colq, 11.2 kg/ha, 10-14 days, read-out: herbicidal rating (% inhibition)
Method: as §1, §2, §3, §4

Pennsylvania Smartweed = conditions: pre-emergence, Pesw, 11.2 kg/ha, 10-14 days, read-out: herbicidal rating (% inhibition)
Method: as §1, §2, §3, §4

Barnyardgrass = conditions: Echinochloa crus-galli, pre-emergence, Bygr, 11.2 kg/ha, 10-14 days, read-out: herbicidal rating (% inhibition)
Method: as §1, §2, §3, §4

Velvetleaf = conditions: Abutilon theophrasti, pre-emergence, Vele, 11.2 kg/ha, 10-14 days, read-out: herbicidal rating (% inhibition)
Method: as §1, §2, §3, §4

Cocklebur = conditions: Xanthium strumarium, pre-emergence, Cobu, 11.2 kg/ha, 10-14 days, read-out: herbicidal rating (% inhibition)
Method: as §1, §2, §3, §4

Rhizome Johnsongrass = conditions: Sorghum halepense, pre-emergence, Rhjg, 11.2 kg/ha, 10-14 days, read-out: herbicidal rating (% inhibition)
Method: as §1, §2, §3, §4

Quackgrass = conditions: pre-emergence, Rhqg, 11.2 kg/ha, 10-14 days, read-out: herbicidal rating (% inhibition)
Method: as §1, §2, §3, §4

Canada thistle = conditions: Cirsium arvense, pre-emergence, Cath, 11.2 kg/ha, 10-14 days, read-out: herbicidal rating (% inhibition)
Method: as §1, §2, §3, §4

Yellow Nutsedge = conditions: Cyperus, pre-emergence, Yens, 11.2 kg/ha, 10-14 days, read-out: herbicidal rating (% inhibition)
Method: as §1, §2, §3, §4

Downy Brome = conditions: Bromus tectorum, pre-emergence, Dobr, 11.2 kg/ha, 10-14 days, read-out: herbicidal rating (% inhibition)
Method: as §1, §2, §3, §4

Measured: inhibition at 11200 g/ha

CCOc1nc(C(F)(F)F)c(C(=O)OC)c(CC(C)C)c1C(=O)OC [Compound 6, 3,5-pyridinedicarboxylic acid, 2-ethoxy-4-(2-methylpropyl)-6-(trifluoromethyl)-, dimethyl ester]
25 to 49%: Cocklebur | Yellow Nutsedge
not listed: Downy Brome
75 to 100%: all other assays above

CCCOc1nc(C(F)(F)F)c(C(=O)OC)c(CC(C)C)c1C(=O)OCC [Compound 7, 3,5-pyridinedicarboxylic acid, 4-(2-methylpropyl)-2-propyloxy-6-(trifluoromethyl)-,3-ethyl 5-methyl ester]
25 to 49%: Pennsylvania Smartweed
75 to 100%: Common Lambsquarters | Barnyardgrass
not listed: Downy Brome
0 to 24%: all other assays above

CCOc1nc(C(F)(F)F)c(C(=O)OC)c(CC(C)C)c1C(=O)SC [Compound 8, 3-pyridinecarboxylic acid, 6-ethoxy-4-(2-methylpropyl)-5-[(methylthio)carbonyl]-2-(trifluoromethyl)-, methyl ester]
0 to 24%: Cocklebur | Rhizome Johnsongrass | Canada thistle | Yellow Nutsedge
not listed: Downy Brome
75 to 100%: all other assays above

COC(=O)c1c(OC)nc(C(F)(F)F)c(C(=O)OC)c1CC(=O)O [Compound 13, 3,5-pyridinedicarboxylic acid, 4-(carboxymethyl)-2-methoxy-6-(trifluoromethyl)-, dimethyl ester]
not listed: Pennsylvania Smartweed
0 to 24%: all other assays above

CCOc1nc(C(F)(F)F)c(C(=O)OC)c(CC(C)C)c1C(=O)N(C)C [Compound 17, 3-pyridinecarboxylic acid, 5-[(dimethylamino)carbony]-6-ethoxy-4-(2-methylpropyl)-2-(trifluoromethyl)-, methyl ester]
75 to 100%: Barnyardgrass
50 to 74%: Common Lambsquarters
not listed: Downy Brome
0 to 24%: all other assays above

CCOc1nc(C(F)(F)F)c(C(=O)OC)c(CC(C)C)c1C(=O)O [Compound 18, 3,5-pyridinedicarboxylic acid, 2-ethoxy-4-(2-methylpropyl)-6-(trifluoromethyl)-, 5-methyl ester]
25 to 49%: Cocklebur
50 to 74%: Common Lambsquarters
not listed: Downy Brome
0 to 24%: all other assays above

COC(=O)c1c(C(F)(F)F)nc(OC)c(N)c1CC(C)C [Compound 32, 3-pyridinecarboxylic acid, 5-amino-6-methoxy-4-(2-methylpropyl)-2-(trifluoromethyl)-, methyl ester]
50 to 74%: Pennsylvania Smartweed
75 to 100%: Common Lambsquarters | Barnyardgrass
not listed: Rhizome Johnsongrass
0 to 24%: all other assays above

COC(=O)c1c(OC)nc(C(F)(F)F)c(C=O)c1CC(C)C [Compound 79, 3-pyridinecarboxylic acid, 5-formy1-2-methoxy-4-(2-methylpropyl)-6-(trifluoromethyl)-, methyl ester]
50 to 74%: Morningglory | Velvetleaf
0 to 24%: Cocklebur | Yellow Nutsedge
not listed: Rhizome Johnsongrass
75 to 100%: all other assays above

COC(=O)c1c(OCC#N)nc(C(F)(F)F)c(C(=O)OC)c1CC(C)C [Compound 80, 3,5-pyridinedicarboxylic acid, 2-(cyanomethoxy)-4-(2-methylpropyl)-6-(trifluoromethyl)-, dimethyl ester]
25 to 49%: Cocklebur | Quackgrass
50 to 74%: Yellow Nutsedge
not listed: Rhizome Johnsongrass
75 to 100%: all other assays above

COC(=O)c1c(OC)nc(C(F)(F)F)c(C(=O)OCCF)c1CC(C)C [Compound 81, 3,5-pyridinedicarboxylic acid, 2-methoxy-4-(2-methylpropyl)-6-(trifluoromethyl)-, 5-(2-fluoroethyl) 3-methyl ester]
not listed: Rhizome Johnsongrass
75 to 100%: all other assays above

C#CCOC(=O)c1c(C(F)(F)F)nc(OC)c(C(=O)OC)c1CC(C)C [Compound 82, 3,5-pyridinedicarboxylic acid, 2-methoxy-4-(2-methylpropyl)-6-(trifluoromethyl)-, 3-methyl 5-(2-propynyl)ester]
50 to 74%: Cocklebur | Quackgrass
25 to 49%: Yellow Nutsedge
not listed: Rhizome Johnsongrass
75 to 100%: all other assays above

COC(=O)c1c(OC)nc(C(F)(F)F)c(C(=O)Cl)c1CC(C)C [Compound 84, 3-pyridinecarboxylic acid, 5-(chlorocarbonyl)-2-methoxy-4-(2-methylpropyl)-6-(trifluoromethyl)-, methyl ester]
25 to 49%: Morningglory
75 to 100%: Common Lambsquarters | Barnyardgrass | Downy Brome | Canada thistle
not listed: Pennsylvania Smartweed
0 to 24%: all other assays above

COC(=O)c1c(OC)nc(C(F)(F)F)c(C(=O)OC)c1CBr [Compound 87, 3,5-pyridinedicarboxylic acid, 4-(bromomethyl)-2-methoxy-6-(trifluoromethyl)-, dimethyl ester]
50 to 74%: Common Lambsquarters
not listed: Pennsylvania Smartweed
0 to 24%: all other assays above

COCc1c(C(=O)OC)c(OC)nc(C(F)(F)F)c1C(=O)OC [Compound 88, 3,5-pyridinedicarboxylic acid, 2-methoxy-4-(methoxymethyl)-6-(trifluoromethyl)-, dimethyl ester]
75 to 100%: Barnyardgrass
50 to 74%: Common Lambsquarters
25 to 49%: Morningglory | Velvetleaf | Downy Brome
not listed: Pennsylvania Smartweed
0 to 24%: all other assays above
